Where a name gives a salt, the structure may show the parent alone.
Columns and labels:
[1] = target: T1, recombinant human MetAP2 (Homo sapiens, UniProt P50579); assay: Recombinant human MetAP2 enzyme inhibition assay (MAS peptide / amino acid oxidase / Amplex Ultrared readout); type: biochemical; details: Flag tagged human recombinant MetAP2, 25 minutes at 25° C.
T1 construct: Flag; made in house
Experimental: Compounds are tested for their capacity to inhibit recombinant human MetAP2 activity using the following assay.
Flag tagged Human recombinant MetAP2 expressed and isolated for use as the enzyme source. 10 mM stock solutions of compounds were prepared in 100% DMSO and further diluted in 100% DMSO required concentration to 1 mM stocks. The stock compound solutions and DMSO vehicle controls were diluted to target final compound concentrations using assay buffer to a final concentration of 50 mM HEPES containing 100 mM NaCl, pH adjusted to 7.5. The MAS peptide was formulated to a 7.5 mM stock in distilled water and prior to use further diluted 1:4. […] 40 μl of enzyme was mixed with 100 μl of MnCl2 then further diluted in assay buffer to a final concentration of 16 μg/ml. To test for compound effect on MetAP2 enzyme activity, 5 μl of test compound, 10 μl of MAS substrate/amino acid oxidase mixture, 10 μl of MetAP2 was added to test wells in a 384 well black plate with blank wells containing no enzyme, replaced with 10 μl of assay buffer. All compounds were tested in duplicate on two occasions on the same day.
The plate was sealed with a TopSeal A cover and mixed briefly on an orbital mixer at 900 rpm. The plate was incubated for a further 25 minutes at 25° C. A 5× stock of Amplex buffer was prepared (0.25 M sodium phosphate, pH 7.4) and stored at 4° C. […] Horse radish peroxidase was diluted in […] of Amplex buffer, 100 μl of this was combined with 50 μl of Amplex Ultrared in […] of 1× Amplex buffer to generate sufficient detection reagent for a 384 well plate. 25 μl detection reagent was added to each well of the test plate, which was re-sealed and mixed briefly on an orbital shaker. The plate was transferred to an Envision Multi-label reader and RFU measured corresponding to excitation 531 nm and emission 595 nm. At the end of the MetAP2 incubation 25 μl Amplex/HRP mixture per well was added and the plate read plate on a plate reader.

[2] = test system: Diet Induced Obese (DIO) C57BL/6 mice; assay: 10 day DIO mouse model, weight loss vs. vehicle; type: in vivo; details: 240 h; for inhibition in vivo at 0.3 mg/kg: 0.3 mpk sc once a day for 10 days; for inhibition in vivo at 1 mg/kg: 1.0 mpk sc once a day for 10 days
From the text: The objective of this study design was to investigate the efficacy of disclosed compounds in a 10 day DIO mouse model. Effects on body weight, food intake, hematology and blood chemistry were the primary readouts of this study design. Male, Diet Induced Obese (DIO) C57BL/6 mice, 19-21 weeks of age (13-15 weeks on high fat diet) were ordered from a certified vendor and upon receipt were housed on irradiated corncob bedding in micro-isolator cages on a 12-hour light-dark cycle (0700-1900) at 68-74° F. and 30-70% humidity. Mice were fed Research Diets D12492 (60% Kcal fat, 20% Kcal carbohydrate and 20% protein) and provided water ad libitum. DIO mice were received and housed in the facility for approximately two weeks prior to the start of test article administration. On Day −4 or −3, mice were randomized into study groups based on body weight and body weights were continued to be recorded daily for the duration of the study. Daily food intake was assessed starting on Study Day −2 by weighing of the food with hopper together to avoid loss of food in transfer.
(§1) Compounds were formulated into a 100% DMSO stock (at 9 mg/mL) prior to the start, and further diluted into the target working concentration using the vehicle of 10% DMSO in water. Prior to test article administration, starting on Day −3 a dosing acclimation occurred with all animals receiving a subcutaneous injection of vehicle (10% DMSO) only for 3 days. Starting on Day 1, test compounds or vehicle were administered based on individual body weight, subcutaneously, once a day for 10 days. All mice were sacrificed on Day 11, 24 hours following the final dosing on Day 10. After sacrifice, whole blood was collected and analyzed for hematology and blood chemistry parameters.
(§2) Compounds were tested for weight loss vs. vehicle at 0.3 and 1.0 mpk sc (mg per kg animal weight delivered subcutaneously), and the results are shown in Table 2 below.

[3] = test system: rat DIO model (Sprague Dawley rats on 45% High Fat diet); assay: 11 day rat DIO model, weight loss vs. vehicle; type: in vivo; details: for Rat @ 0.3 mpk sc (%) weight loss vs. vehicle: 0.3 mpk sc once a day for 11 days; for Rat @ 1.0 mpk sc (%) weight loss vs. vehicle: 1.0 mpk sc once a day for 11 days
From the text: The objective of this study design is to investigate the efficacy of disclosed compounds in an 11 day rat DIO model used to screen compounds for pharmacologic efficacy on endpoints related to obesity and metabolism. Effects on body weight, food intake, hematology and blood chemistries were the primary readouts of this study design. Male Sprague Dawley rats, approximately 8 weeks of age, were ordered from a certified vendor and housed on irradiated corncob bedding in micro-isolator cages, on a 12-hour light-dark cycle (0700-1900) at 68-74° F. and 30-70% humidity. Rats were fed Research Diets D12451 (45% High Fat) and provided water ad libitum. Rats were received and housed in the facility for at least two or three weeks prior to start of test article administration. On Day −4 or −3, rats were randomized into study groups based on body weight and body weights were continued to be recorded daily for the duration of the study. Daily food intake was assessed starting on Study Day −2 by weighing the hopper including the food to avoid loss of food in transfer.
as §1, with “for 11” for “for 10”, “All animals” for “All mice”, “11, approximately 2” for “11, 24”, “Day 11.” for “Day 10.”
as §2

T1 sequence (P50579 whole entry): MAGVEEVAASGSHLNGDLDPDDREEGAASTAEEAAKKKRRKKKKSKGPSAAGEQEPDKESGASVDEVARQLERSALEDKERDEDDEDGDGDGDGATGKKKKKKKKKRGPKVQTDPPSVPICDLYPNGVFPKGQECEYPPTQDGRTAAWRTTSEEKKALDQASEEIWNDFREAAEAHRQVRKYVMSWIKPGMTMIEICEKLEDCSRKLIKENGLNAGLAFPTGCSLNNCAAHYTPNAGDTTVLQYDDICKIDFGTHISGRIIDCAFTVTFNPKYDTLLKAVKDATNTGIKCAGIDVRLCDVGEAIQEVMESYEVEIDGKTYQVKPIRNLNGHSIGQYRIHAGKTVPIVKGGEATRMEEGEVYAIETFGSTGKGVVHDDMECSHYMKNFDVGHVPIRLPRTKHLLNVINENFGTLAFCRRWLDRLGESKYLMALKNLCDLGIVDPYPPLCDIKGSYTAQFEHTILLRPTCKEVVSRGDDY

Compound: CO[C@@H]1[C@H](OC(=O)N[C@H](c2cn(C[C@H]3CCN(C)C3)cn2)C(C)C)CC[C@]2(CO2)[C@H]1[C@@]1(C)O[C@@H]1CC=C(C)C [Example 15, (3R,4S,5S,6R)-5-methoxy-4-((2R,3R)-2-methyl-3-(3-methylbut-2-en-1-yl)oxiran-2-yl)-1-oxaspiro[2.5]octan-6-yl ((S)-2-methyl-1-(1-(((S)-1-methylpyrrolidin-3-yl)methyl)-1H-imidazol-4-yl)propyl)carbamate]
- IC50 [1]: < 50 nM
- inhibition in vivo at 0.3 mg/kg [2]: 10.8%
- inhibition in vivo at 1 mg/kg [2]: 8.4%
- Rat @ 0.3 mpk sc (%) weight loss vs. vehicle [3]: 10.6%
- Rat @ 1.0 mpk sc (%) weight loss vs. vehicle [3]: 16.4%

Compound: CO[C@@H]1[C@H](OC(=O)N[C@@H](Cc2noc(=O)[nH]2)C(C)C)CC[C@]2(CO2)[C@H]1[C@@]1(C)O[C@@H]1CC=C(C)C [Example 27, (3R,4S,5S,6R)-5-methoxy-4-((2R,3R)-2-methyl-3-(3-methylbut-2-enyl)oxiran-2-yl)-1-oxaspiro[2.5]octan-6-yl (S)-3-methyl-1-(5-oxo-4,5-dihydro-1,2,4-oxadiazol-3-yl)butan-2-ylcarbamate]
- IC50 [1]: 50 to 500 nM
- inhibition in vivo at 1 mg/kg [2]: 5.4%
- Rat @ 0.3 mpk sc (%) weight loss vs. vehicle [3]: −0.8%
- Rat @ 1.0 mpk sc (%) weight loss vs. vehicle [3]: 1.9%

Compound: CO[C@@H]1[C@H](OC(=O)N[C@H](c2nccn2C[C@@H]2CCCN2C)C(C)C)CC[C@]2(CO2)[C@H]1[C@@]1(C)O[C@@H]1CC=C(C)C [Example 6, (3R,4S,5S,6R)-5-methoxy-4-((2R,3R)-2-methyl-3-(3-methylbut-2-enyl)oxiran-2-yl)-1-oxaspiro[2.5]octan-6-yl (S)-2-methyl-1-(1-(((S)-1-methylpyrrolidin-2-yl)methyl)-1H-imidazol-2-yl)propylcarbamate formate]
- IC50 [1]: 50 to 500 nM
- inhibition in vivo at 0.3 mg/kg [2]: 6.5%
- Rat @ 0.3 mpk sc (%) weight loss vs. vehicle [3]: 0.1%
- Rat @ 1.0 mpk sc (%) weight loss vs. vehicle [3]: 2.1%

Compound: CO[C@@H]1[C@H](OC(=O)NCC(C)(C)c2cn(C[C@H]3CCCN3C)cn2)CC[C@]2(CO2)[C@H]1[C@@]1(C)O[C@@H]1CC=C(C)C [Example 38, (3R,4S,5S,6R)-5-methoxy-4-((2R,3R)-2-methyl-3-(3-methylbut-2-en-1-yl)oxiran-2-yl)-1-oxaspiro[2.5]octan-6-yl (2-methyl-2-(1-(((R)-1-methylpyrrolidin-2-yl)methyl)-1H-imidazol-4-yl)propyl)carbamate]
- IC50 [1]: 50 to 500 nM
- inhibition in vivo at 0.3 mg/kg [2]: 5%
- inhibition in vivo at 1 mg/kg [2]: 5.5%
- Rat @ 0.3 mpk sc (%) weight loss vs. vehicle [3]: −1.7%

Compound: CO[C@@H]1[C@H](OC(=O)N[C@H](Cc2nc(=O)o[nH]2)C(C)C)CC[C@]2(CO2)[C@H]1[C@@]1(C)O[C@@H]1CC=C(C)C [Example 30, (3R,4S,5S,6R)-5-methoxy-4-((2R,3R)-2-methyl-3-(3-methylbut-2-enyl)oxiran-2-yl)-1-oxaspiro[2.5]octan-6-yl (R)-3-methyl-1-(5-oxo-4,5-dihydro-1,2,4-oxadiazol-3-yl)butan-2-ylcarbamate]
- IC50 [1]: 50 to 500 nM
- inhibition in vivo at 0.3 mg/kg [2]: 1.4%
- inhibition in vivo at 1 mg/kg [2]: 14.1%
- Rat @ 0.3 mpk sc (%) weight loss vs. vehicle [3]: 0.7%
- Rat @ 1.0 mpk sc (%) weight loss vs. vehicle [3]: −0.4%

Compound: CO[C@@H]1[C@H](OC(=O)N[C@@H](c2cn(C[C@H]3CCN(C)C3)cn2)C(C)C)CC[C@]2(CO2)[C@H]1[C@@]1(C)O[C@@H]1CC=C(C)C [Example 12, (3R,4S,5S,6R)-5-methoxy-4-((2R,3R)-2-methyl-3-(3-methylbut-2-enyl)oxiran-2-yl)-1-oxaspiro[2.5]octan-6-yl (R)-2-methyl-1-(1-(((S)-1-methylpyrrolidin-3-yl)methyl)-1H-imidazol-4-yl)propylcarbamate formate]
- IC50 [1]: 50 to 500 nM
- inhibition in vivo at 0.3 mg/kg [2]: 9.5%
- Rat @ 0.3 mpk sc (%) weight loss vs. vehicle [3]: 12.9%
- Rat @ 1.0 mpk sc (%) weight loss vs. vehicle [3]: 18.8%

Compound: CNc1nnc([C@@H](NC(=O)O[C@@H]2CC[C@]3(CO3)[C@@H]([C@@]3(C)O[C@@H]3CC=C(C)C)[C@@H]2OC)C(C)C)o1 [Example 2, (3R,5S,6R)-5-methoxy-4-((2R,3R)-2-methyl-3-(3-methylbut-2-enyl)oxiran-2-yl)-1-oxaspiro[2.5]octan-6-yl (S)-2-methyl-1-(5-(methylamino)-1,3,4-oxadiazol-2-yl)propylcarbamate]
- IC50 [1]: < 50 nM
- inhibition in vivo at 0.3 mg/kg [2]: 5.4%
- inhibition in vivo at 1 mg/kg [2]: 4.6%
- Rat @ 0.3 mpk sc (%) weight loss vs. vehicle [3]: 0.6%
- Rat @ 1.0 mpk sc (%) weight loss vs. vehicle [3]: 0.9%

Compound: CO[C@@H]1[C@H](OC(=O)N[C@H](c2ncc[nH]2)C(C)C)CC[C@]2(CO2)[C@H]1[C@@]1(C)O[C@@H]1CC=C(C)C [Example 4, (3R,4S,5S,6R)-5-methoxy-4-((2R,3R)-2-methyl-3-(3-methylbut-2-enyl)oxiran-2-yl)-1-oxaspiro[2.5]octan-6-yl (S)-1-(1H-imidazol-2-yl)-2-methylpropylcarbamate]
- IC50 [1]: < 50 nM
- inhibition in vivo at 0.3 mg/kg [2]: 3.9%
- inhibition in vivo at 1 mg/kg [2]: 0.7%

Compound: CC[C@@H](Cc1noc(=O)[nH]1)NC(=O)O[C@@H]1CC[C@]2(CO2)[C@@H]([C@@]2(C)O[C@@H]2CC=C(C)C)[C@@H]1OC [Example 29, (3R,4S,5S,6R)-5-methoxy-4-((2R,3R)-2-methyl-3-(3-methylbut-2-enyl)oxiran-2-yl)-1-oxaspiro[2.5]octan-6-yl (S)-1-(5-oxo-4,5-dihydro-1,2,4-oxadiazol-3-yl)butan-2-ylcarbamate]
- IC50 [1]: < 50 nM
- inhibition in vivo at 1 mg/kg [2]: 3.6%

Compound: CO[C@@H]1[C@H](OC(=O)N[C@H](c2cn(CCN3CCOCC3)cn2)C(C)C)CC[C@]2(CO2)[C@H]1[C@@]1(C)O[C@@H]1CC=C(C)C [Example 17, (3R,4S,5S,6R)-5-methoxy-4-((2R,3R)-2-methyl-3-(3-methylbut-2-enyl)oxiran-2-yl)-1-oxaspiro[2.5]octan-6-yl (S)-2-methyl-1-(1-(2-morpholinoethyl)-1H-imidazol-4-yl)propylcarbamate]
- IC50 [1]: 50 to 500 nM
- inhibition in vivo at 0.3 mg/kg [2]: 3.2%

Compound: CO[C@@H]1[C@H](OC(=O)N[C@H](c2nnc(N)o2)C(C)C)CC[C@]2(CO2)[C@H]1[C@@]1(C)O[C@@H]1CC=C(C)C [Example 1, (3R,4S,5S,6R)-5-methoxy-4-((2R,3R)-2-methyl-3-(3-methylbut-2-enyl)oxiran-2-yl)-1-oxaspiro[2.5]octan-6-yl (S)-1-(5-amino-1,3,4-oxadiazol-2-yl)-2-methylpropylcarbamate]
- IC50 [1]: < 50 nM
- inhibition in vivo at 0.3 mg/kg [2]: 2.6%
- inhibition in vivo at 1 mg/kg [2]: 2.1%
